According to patent EP0908457B1, “3-(1,2-benzisothiazol- and isoxazol-5-Y1)-2,4(1H,3H)-pyrimidinedione or thione and 3-(1,2-benzisothiazol- and isoxazol-5-y1)-4(3H)-pyrimidinone or thione herbicidal agents” (BASF AKTIENGESELLSCHAFT, priority 1997, dated 1999):

How the values were obtained:
Cyperus iria = assay: Preemergence weed control under flooded paddy conditions, CYPIR (Rice Flatsedge); format: in vivo; conditions: preemergence, flooded paddy
[1] = system: Cyperus serotinus, Rottb.; assay: Preemergence weed control under flooded paddy conditions, CYPSE (Flatsedge); format: in vivo; conditions: preemergence
[2] = system: Oryza sativa, (L.) Tebonnet; assay: Rice tolerance to post-transplant applications under flooded paddy conditions (Example 187), ORYSAT (Rice, Tebonnet)
[3] = system: Monochoria vaginalis, Presl.; assay: Preemergence weed control under flooded paddy conditions, MOOVA (Monochoria); format: in vivo; conditions: preemergence, flooded paddy
[4] = system: Echinochloa oryzoides (Ard.) Fritsch.; assay: Preemergence weed control under flooded paddy conditions, ECHORC (Watergrass (Calif.)); format: in vivo; conditions: preemergence, flooded paddy
Sagittaria pygmaea, L. = assay: Preemergence weed control under flooded paddy conditions, SAGPY (Arrowhead (Pygmaea)); format: in vivo; conditions: preemergence, flooded paddy
[5] = Rate 0.0320 kg/ha, rated 3-4 weeks after treatment
[6] = Rate 0.0620 kg/ha, rated 3-4 weeks after treatment
[7] = Rate 0.1250 kg/ha, rated 3-4 weeks after treatment
[8] = Rate 0.2500 kg/ha, rated 3-4 weeks after treatment
[9] = Rate 0.0320 kg/ha, rated three to four weeks after treatment
[10] = Rate 0.0620 kg/ha, rated three to four weeks after treatment
[11] = Rate 0.1250 kg/ha, rated three to four weeks after treatment
[12] = Rate 0.2500 kg/ha, rated three to four weeks after treatment
Also: meaning of each grade not given here.

C#CC(C)OC(=O)C(C)(C)Oc1ccc(C)cc1-c1nsc2ccc(-n3c(=O)cc(C(F)(F)F)n(C)c3=O)cc12 (stereo not drawn) [Example 531, Propionic acid, 2-{{2-{5-[3,6-dihydro-3-methyl-2,6-dioxo-4-(trifluoromethyl)-1(2H)-pyrimidinyl]-1,2-benzisothiazol-3-yl}-p-tolyl}oxy}-2-methyl-, 1-methyl-2-propynyl ester]
herbicidal effect rating, CYPIR (Cyperus iria; [5]): 0.0
herbicidal effect rating, CYPIR (Cyperus iria; [6]): 0.0
herbicidal effect rating, CYPIR (Cyperus iria; [7]): 4.0
herbicidal effect rating, CYPIR (Cyperus iria; [8]): 4.0
herbicidal effect rating, CYPSE [1, 5]: 0.0
herbicidal effect rating, CYPSE [1, 6]: 0.0
herbicidal effect rating, CYPSE [1, 7]: 3.0
herbicidal effect rating, CYPSE [1, 8]: 3.0
herbicidal effect rating ORYSAT [2, 5]: 0.0
herbicidal effect rating ORYSAT [2, 6]: 0.0
herbicidal effect rating ORYSAT [2, 7]: 3.0
herbicidal effect rating ORYSAT [2, 8]: 9.0
herbicidal effect rating, MOOVA [3, 5]: 9.0
herbicidal effect rating, MOOVA [3, 6]: 9.0
herbicidal effect rating, MOOVA [3, 7]: 9.0
herbicidal effect rating, MOOVA [3, 8]: 9.0
herbicidal effect rating, ECHORC [4, 5]: 9.0
herbicidal effect rating, ECHORC [4, 6]: 9.0
herbicidal effect rating, ECHORC [4, 7]: 9.0
herbicidal effect rating, ECHORC [4, 8]: 9.0
herbicidal effect rating, SAGPY (Sagittaria pygmaea, L.; [5]): 0.0
herbicidal effect rating, SAGPY (Sagittaria pygmaea, L.; [6]): 0.0
herbicidal effect rating, SAGPY (Sagittaria pygmaea, L.; [7]): 3.0
herbicidal effect rating, SAGPY (Sagittaria pygmaea, L.; [8]): 3.0

Cn1c(C(F)(F)F)cc(=O)n(-c2ccc3snc(COCc4ccc(Cl)c(Cl)c4)c3c2)c1=O [Example 586, 2,4(1H,3H)-Pyrimidinedione, 3-{3-{[(3,4-dichlorobenzyl)oxy]methyl}-1,2-benzisothiazol-5-yl}-1-methyl-6-(trifluoromethyl)-]
herbicidal effect rating, CYPIR (Cyperus iria; [9]): 8.0
herbicidal effect rating, CYPIR (Cyperus iria; [10]): 8.5
herbicidal effect rating, CYPIR (Cyperus iria; [11]): 9.0
herbicidal effect rating, CYPIR (Cyperus iria; [12]): 9.0
herbicidal effect rating, CYPSE [1, 9]: 0.0
herbicidal effect rating, CYPSE [1, 10]: 0.0
herbicidal effect rating, CYPSE [1, 11]: 4.5
herbicidal effect rating, CYPSE [1, 12]: 4.5
herbicidal effect rating ORYSAT [2, 9]: 1.0
herbicidal effect rating ORYSAT [2, 10]: 2.0
herbicidal effect rating ORYSAT [2, 11]: 2.0
herbicidal effect rating ORYSAT [2, 12]: 2.0
herbicidal effect rating, MOOVA [3, 9]: 9.0
herbicidal effect rating, MOOVA [3, 10]: 6.5
herbicidal effect rating, MOOVA [3, 11]: 9.0
herbicidal effect rating, MOOVA [3, 12]: 9.0
herbicidal effect rating, ECHORC [4, 9]: 8.0
herbicidal effect rating, ECHORC [4, 10]: 9.0
herbicidal effect rating, ECHORC [4, 11]: 9.0
herbicidal effect rating, ECHORC [4, 12]: 9.0
herbicidal effect rating, SAGPY (Sagittaria pygmaea, L.; [9]): 0.0
herbicidal effect rating, SAGPY (Sagittaria pygmaea, L.; [10]): 0.0
herbicidal effect rating, SAGPY (Sagittaria pygmaea, L.; [11]): 0.0
herbicidal effect rating, SAGPY (Sagittaria pygmaea, L.; [12]): 0.0
